Values after ≈ are worked out from the molar mass of the structure shown. Like-named read-outs stand apart in the source and are kept apart here.
Assays:
[1] = system: L1210 leukemia cells; type: in vivo, CDF1 mice; conditions: i.p., daily for 10 days
Method: CDF1 mice were intraperitoneally implanted with 1×10^5 L1210 leukemia cells/mouse as a suspension. After the implantation, 0.25 ml of a solution containing the test compound was intraperitoneally injected into each mouse, each day, for 10 days, beginning on the day of implantation.
The increase of life span (%) compared with the control group consisting of mice administered with physiological saline solution instead of the test compound solution was calculated from the following equation: [formula]

[2] = system: L1210 cells; assay: Growth inhibition of cultured L1210 cells; type: cell-based
From the text: (§1) These findings indicated its therapeutic effect on tumors in experimental animals.

[3] = system: DNA synthesis in L1210 cells; assay: Inhibition of DNA synthesis in L1210 cells; type: cell-based
From the text: as §1

[4] = system: RNA synthesis in L1210 cells; assay: Inhibition of RNA synthesis in L1210 cells; type: cell-based
From the text: as §1

[5] = system: Protein synthesis in L1210 cells; assay: Inhibition of protein synthesis in L1210 cells; type: cell-based; conditions: at 10 μg/ml
From the text: as §1

[6] = system: B. cereus ATCC10702; assay: Antimicrobial activity, agar dilution method; type: cell-based
From the text: (§2) The antimicrobial activity of serirubicin according to the present invention was examined. It is expressed as minimum inhibitory concentration (MIC) determined by the agar dilution method.

[7] = system: B. subtilis PCI219; assay: Antimicrobial activity, agar dilution method; type: cell-based
From the text: as §2

[8] = system: Coryn. bovis 1810; assay: Antimicrobial activity, agar dilution method; type: cell-based
From the text: as §2

[9] = system: M. lysodeikticus IF03333; assay: Antimicrobial activity, agar dilution method; type: cell-based
From the text: as §2

[10] = system: S. aureus 209P; assay: Antimicrobial activity, agar dilution method; type: cell-based
From the text: as §2

[11] = system: S. aureus MS8710; assay: Antimicrobial activity, agar dilution method; type: cell-based
From the text: as §2

[12] = system: S. aureus MS9610; assay: Antimicrobial activity, agar dilution method; type: cell-based
From the text: as §2

[13] = system: S. aureus Smith; assay: Antimicrobial activity, agar dilution method; type: cell-based
From the text: as §2

[14] = system: Sal. typhi T-63; assay: Antimicrobial activity, agar dilution method; type: cell-based
From the text: as §2

CCC1(O)CC(OC2CC(N(C)C)C(OC3CC4OC5CC(=O)C(C)OC5OC4C(C)O3)C(C)O2)c2cc3c(c(O)c2C1OC1CC(N(C)C)C(OC2CC4OC5CC(=O)C(C)OC5OC4C(C)O2)C(C)O1)C(=O)c1cccc(O)c1C3=O (stereo not drawn) [serirubicin]
Increase of life span ([1]; 0.031 mg/kg/day): 119%
Increase of life span ([1]; 0.063 mg/kg/day): 113%
Increase of life span ([1]; 0.125 mg/kg/day): 137%
Increase of life span ([1]; 0.25 mg/kg/day): 274%
Increase of life span ([1]; 0.5 mg/kg/day): 143%
Increase of life span ([1]; 1.0 mg/kg/day): 149%
ID50 Growth ([2]; L1210 cells): 0.004 µg/mL (≈ 0.00343 µM)
Inhibition of growth (in words) ([2]; cultured L1210 cells): inhibited the growth of cultured L1210 cells at very low concentrations
ID50 DNA synthesis [3]: 0.46 µg/mL (≈ 0.395 µM)
ID50 RNA synthesis ([4]; L1210 cells): 0.086 µg/mL (≈ 0.0738 µM)
Inhibition of RNA synthesis (in words) ([4]; cultured L1210 cells): RNA synthesis was inhibited at particularly low concentration
Protein synthesis inhibition [5]: 32%
MIC [6]: 0.78 µg/mL (≈ 0.669 µM)
MIC [7]: 0.78 µg/mL (≈ 0.669 µM)
MIC [8]: 0.39 µg/mL (≈ 0.335 µM)
MIC [9]: 0.78 µg/mL (≈ 0.669 µM)
MIC [10]: 0.78 µg/mL (≈ 0.669 µM)
MIC [11]: 0.78 µg/mL (≈ 0.669 µM)
MIC [12]: 0.78 µg/mL (≈ 0.669 µM)
MIC [13]: 1.56 µg/mL (≈ 1.34 µM)
MIC [14]: > 3.12 µg/mL
